Results as given in ChEMBL document CHEMBL1201862, “PubChem BioAssay data set” (2004).
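Step 1: Grow cells in 96-well plates. Step 2: Expose to compound for 48 hours at 5 concentrations. Step 3: Interpolate endpoints linearly; if unreached, use highest concentration. GI50 is the concentration that inhibits growth by half.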 Active and inactive are the calls of the source. Cut-off read from the data, not from the text of the source: active = GI50 up to about 1.1 µM and inactive = higher.

What was measured:
Experiment in all cases: DTP human tumour cell line panel, 48 h
MCF7 = tested on: MCF7
EKVX = tested on: EKVX
SR = tested on: SR
SN12C = tested on: SN12C
T47D = tested on: T47D
SNB-19 = tested on: SNB-19
SF-268 = tested on: SF-268
OVCAR-3 = tested on: OVCAR-3
BT-549 = tested on: BT-549
M14 = tested on: M14
SNB-75 = tested on: SNB-75
786-0 = tested on: 786-0
K562 = tested on: K562
TK-10 = tested on: TK-10
COLO 205 = tested on: COLO 205
HCC 2998 = tested on: HCC 2998
ACHN = tested on: ACHN
SK-OV-3 = tested on: SK-OV-3
DU-145 = tested on: DU-145
OVCAR-8 = tested on: OVCAR-8
HCT-15 = tested on: HCT-15
SF-295 = tested on: SF-295
HL-60 = tested on: HL-60
SK-MEL-5 = tested on: SK-MEL-5
Malme-3M = tested on: Malme-3M
HT-29 = tested on: HT-29
A549 = tested on: A549
CCRF-CEM = tested on: CCRF-CEM
A498 = tested on: A498
LOX IMVI = tested on: LOX IMVI
CAKI-1 = tested on: CAKI-1
MOLT-4 = tested on: MOLT-4
RPMI-8226 = tested on: RPMI-8226
OVCAR-4 = tested on: OVCAR-4
RXF 393 = tested on: RXF 393
UACC-62 = tested on: UACC-62
NCI-H23 = tested on: NCI-H23
Hs-578T = tested on: Hs-578T
HOP-92 = tested on: HOP-92
MDA-N = tested on: MDA-N
HOP-62 = tested on: HOP-62
SW-620 = tested on: SW-620
MDA-MB-435 = tested on: MDA-MB-435
NCI-H522 = tested on: NCI-H522
MDA-MB-231 = tested on: MDA-MB-231
U-251 = tested on: U-251
OVCAR-5 = tested on: OVCAR-5
SK-MEL-2 = tested on: SK-MEL-2
NCI-H460 = tested on: NCI-H460
SF-539 = tested on: SF-539
NCI-H226 = tested on: NCI-H226
PC-3 = tested on: PC-3
IGROV-1 = tested on: IGROV-1
SK-MEL-28 = tested on: SK-MEL-28
UACC-257 = tested on: UACC-257
KM12 = tested on: KM12
HCT-116 = tested on: HCT-116
UO-31 = tested on: UO-31
NCI/ADR-RES = tested on: NCI/ADR-RES

Structure (SMILES): CCOc1ccc(/C=C2\N=C(c3ccc([N+](=O)[O-])cc3)OC2=O)cc1
- GI50 (MCF7): > 100 µM (inactive)
- GI50 (EKVX): > 100 µM (inactive)
- GI50 (SR): > 100 µM (inactive)
- GI50 (SN12C): > 100 µM (inactive)
- GI50 (T47D): > 100 µM (inactive)
- GI50 (SNB-19): > 100 µM (inactive)
- GI50 (SF-268): > 100 µM (inactive)
- GI50 (OVCAR-3): > 100 µM (inactive)
- GI50 (BT-549): > 100 µM (inactive)
- GI50 (M14): > 100 µM (inactive)
- GI50 (SNB-75): > 100 µM (inactive)
- GI50 (786-0): > 100 µM (inactive)
- GI50 (K562): > 100 µM (inactive)
- GI50 (TK-10): > 100 µM (inactive)
- GI50 (COLO 205): > 100 µM (inactive)
- GI50 (HCC 2998): > 100 µM (inactive)
- GI50 (ACHN): > 100 µM (inactive)
- GI50 (SK-OV-3): > 100 µM (inactive)
- GI50 (DU-145): > 100 µM (inactive)
- GI50 (OVCAR-8): > 100 µM (inactive)
- GI50 (HCT-15): > 100 µM
- GI50 (SF-295): > 100 µM (inactive)
- GI50 (HL-60): > 100 µM (inactive)
- GI50 (SK-MEL-5): > 100 µM (inactive)
- GI50 (Malme-3M): > 100 µM (inactive)
- GI50 (HT-29): > 100 µM (inactive)
- GI50 (A549): > 100 µM (inactive)
- GI50 (CCRF-CEM): > 100 µM (inactive)
- GI50 (A498): > 100 µM (inactive)
- GI50 (LOX IMVI): > 100 µM (inactive)
- GI50 (CAKI-1): > 100 µM (inactive)
- GI50 (MOLT-4): > 100 µM (inactive)
- GI50 (RPMI-8226): > 100 µM (inactive)
- GI50 (OVCAR-4): > 100 µM (inactive)
- GI50 (RXF 393): > 100 µM (inactive)
- GI50 (UACC-62): > 100 µM (inactive)
- GI50 (NCI-H23): > 100 µM (inactive)
- GI50 (Hs-578T): > 100 µM (inactive)
- GI50 (HOP-92): > 100 µM (inactive)
- GI50 (MDA-N): > 100 µM (inactive)
- GI50 (HOP-62): > 100 µM (inactive)
- GI50 (SW-620): > 100 µM (inactive)
- GI50 (MDA-MB-435): > 100 µM (inactive)
- GI50 (NCI-H522): > 100 µM (inactive)
- GI50 (MDA-MB-231): > 100 µM (inactive)
- GI50 (U-251): > 100 µM (inactive)
- GI50 (OVCAR-5): > 100 µM (inactive)
- GI50 (SK-MEL-2): > 100 µM (inactive)
- GI50 (NCI-H460): > 100 µM (inactive)
- GI50 (SF-539): > 100 µM (inactive)
- GI50 (NCI-H226): > 100 µM (inactive)
- GI50 (PC-3): > 100 µM (inactive)
- GI50 (IGROV-1): > 100 µM (inactive)
- GI50 (SK-MEL-28): > 100 µM (inactive)
- GI50 (UACC-257): > 100 µM (inactive)
- GI50 (KM12): > 100 µM (inactive)
- GI50 (HCT-116): > 100 µM (inactive)

Structure (SMILES): COC(=O)C(CCSc1ccccc1)C(=O)OC
- GI50 (MCF7): > 100 µM (inactive)
- GI50 (EKVX): > 100 µM (inactive)
- GI50 (SR): > 100 µM (inactive)
- GI50 (SN12C): > 100 µM (inactive)
- GI50 (T47D): > 100 µM (inactive)
- GI50 (OVCAR-3): > 100 µM (inactive)
- GI50 (BT-549): > 100 µM (inactive)
- GI50 (M14): > 100 µM (inactive)
- GI50 (SNB-75): > 100 µM (inactive)
- GI50 (786-0): > 100 µM (inactive)
- GI50 (UO-31): > 100 µM (inactive)
- GI50 (NCI/ADR-RES): > 100 µM (inactive)
- GI50 (COLO 205): > 100 µM (inactive)
- GI50 (HCC 2998): > 100 µM (inactive)
- GI50 (ACHN): > 100 µM (inactive)
- GI50 (SK-OV-3): > 100 µM (inactive)
- GI50 (OVCAR-8): > 100 µM (inactive)
- GI50 (HCT-15): > 100 µM
- GI50 (SF-295): > 100 µM (inactive)
- GI50 (HL-60): 79.3 µM (inactive)
- GI50 (SK-MEL-5): > 100 µM (inactive)
- GI50 (Malme-3M): 10.8 µM (inactive)
- GI50 (HT-29): > 100 µM (inactive)
- GI50 (A549): > 100 µM (inactive)
- GI50 (CCRF-CEM): > 100 µM (inactive)
- GI50 (A498): > 100 µM (inactive)
- GI50 (CAKI-1): > 100 µM (inactive)
- GI50 (MOLT-4): > 100 µM (inactive)
- GI50 (RPMI-8226): > 100 µM (inactive)
- GI50 (OVCAR-4): > 100 µM (inactive)
- GI50 (RXF 393): > 100 µM (inactive)
- GI50 (UACC-62): > 100 µM (inactive)
- GI50 (NCI-H23): > 100 µM (inactive)
- GI50 (Hs-578T): 1.58 µM (inactive)
- GI50 (HOP-92): > 100 µM (inactive)
- GI50 (MDA-N): > 100 µM (inactive)
- GI50 (HOP-62): > 100 µM (inactive)
- GI50 (SW-620): > 100 µM (inactive)
- GI50 (MDA-MB-435): > 100 µM (inactive)
- GI50 (NCI-H522): 93.8 µM (inactive)
- GI50 (MDA-MB-231): > 100 µM (inactive)
- GI50 (U-251): > 100 µM (inactive)
- GI50 (OVCAR-5): > 100 µM (inactive)
- GI50 (SK-MEL-2): > 100 µM (inactive)
- GI50 (NCI-H460): > 100 µM (inactive)
- GI50 (SF-539): > 100 µM (inactive)
- GI50 (NCI-H226): > 100 µM (inactive)
- GI50 (PC-3): > 100 µM (inactive)
- GI50 (IGROV-1): > 100 µM (inactive)
- GI50 (SK-MEL-28): > 100 µM (inactive)
- GI50 (UACC-257): > 100 µM (inactive)
- GI50 (KM12): > 100 µM (inactive)
- GI50 (HCT-116): > 100 µM (inactive)

Structure (SMILES): CC12CCCC(C(=O)O)(C1)[C@H](C(C)(C)C(=O)O)CC2 (some centres undefined)
- GI50 (MCF7): > 100 µM (inactive)
- GI50 (EKVX): > 100 µM (inactive)
- GI50 (SR): > 100 µM (inactive)
- GI50 (SN12C): > 100 µM (inactive)
- GI50 (T47D): > 100 µM (inactive)
- GI50 (SNB-19): > 100 µM (inactive)
- GI50 (SF-268): > 100 µM (inactive)
- GI50 (OVCAR-3): > 100 µM (inactive)
- GI50 (BT-549): > 100 µM (inactive)
- GI50 (M14): > 100 µM (inactive)
- GI50 (SNB-75): > 100 µM (inactive)
- GI50 (786-0): > 100 µM (inactive)
- GI50 (UO-31): > 100 µM (inactive)
- GI50 (K562): > 100 µM (inactive)
- GI50 (TK-10): > 100 µM (inactive)
- GI50 (NCI/ADR-RES): > 100 µM (inactive)
- GI50 (COLO 205): > 100 µM (inactive)
- GI50 (ACHN): > 100 µM (inactive)
- GI50 (SK-OV-3): > 100 µM (inactive)
- GI50 (DU-145): > 100 µM (inactive)
- GI50 (OVCAR-8): > 100 µM (inactive)
- GI50 (HCT-15): > 100 µM
- GI50 (SF-295): > 100 µM (inactive)
- GI50 (HL-60): > 100 µM (inactive)
- GI50 (SK-MEL-5): > 100 µM (inactive)
- GI50 (Malme-3M): > 100 µM (inactive)
- GI50 (HT-29): > 100 µM (inactive)
- GI50 (A549): > 100 µM (inactive)
- GI50 (CCRF-CEM): > 100 µM (inactive)
- GI50 (LOX IMVI): > 100 µM (inactive)
- GI50 (CAKI-1): > 100 µM (inactive)
- GI50 (MOLT-4): > 100 µM (inactive)
- GI50 (RPMI-8226): > 100 µM (inactive)
- GI50 (OVCAR-4): > 100 µM (inactive)
- GI50 (UACC-62): > 100 µM (inactive)
- GI50 (NCI-H23): > 100 µM (inactive)
- GI50 (Hs-578T): > 100 µM (inactive)
- GI50 (HOP-92): > 100 µM (inactive)
- GI50 (MDA-N): > 100 µM (inactive)
- GI50 (HOP-62): > 100 µM (inactive)
- GI50 (SW-620): > 100 µM (inactive)
- GI50 (MDA-MB-435): > 100 µM (inactive)
- GI50 (NCI-H522): > 100 µM (inactive)
- GI50 (U-251): > 100 µM (inactive)
- GI50 (OVCAR-5): > 100 µM (inactive)
- GI50 (SK-MEL-2): > 100 µM (inactive)
- GI50 (NCI-H460): > 100 µM (inactive)
- GI50 (NCI-H226): > 100 µM (inactive)
- GI50 (PC-3): > 100 µM (inactive)
- GI50 (IGROV-1): > 100 µM (inactive)
- GI50 (SK-MEL-28): > 100 µM (inactive)
- GI50 (UACC-257): > 100 µM (inactive)
- GI50 (KM12): > 100 µM (inactive)
- GI50 (HCT-116): > 100 µM (inactive)
